Data: patent publication US8513252B2, “Pyrazole derivatives and their use as positive allosteric modulators of metabotropic glutamate receptors” (Addex Pharma S.A., priority 2009, dated 2013)

Experiments:
[1] = target: T1, recombinant human mGluR4a receptors (Homo sapiens, UniProt Q14833); test: mGluR4 assay on HEK-expressing human mGluR4: fluorescent cell based Ca2+ mobilization assay (FLIPR); conditions: HEK-293 cells expressing hmGluR4; potentiation of EC25 glutamate; mean of at least three independent experiments in duplicate; read-out: Ca^2+ Flux (mean EC50)
T1 construct: expressed in transfected cells
T1 sequence (Q14833 33-912): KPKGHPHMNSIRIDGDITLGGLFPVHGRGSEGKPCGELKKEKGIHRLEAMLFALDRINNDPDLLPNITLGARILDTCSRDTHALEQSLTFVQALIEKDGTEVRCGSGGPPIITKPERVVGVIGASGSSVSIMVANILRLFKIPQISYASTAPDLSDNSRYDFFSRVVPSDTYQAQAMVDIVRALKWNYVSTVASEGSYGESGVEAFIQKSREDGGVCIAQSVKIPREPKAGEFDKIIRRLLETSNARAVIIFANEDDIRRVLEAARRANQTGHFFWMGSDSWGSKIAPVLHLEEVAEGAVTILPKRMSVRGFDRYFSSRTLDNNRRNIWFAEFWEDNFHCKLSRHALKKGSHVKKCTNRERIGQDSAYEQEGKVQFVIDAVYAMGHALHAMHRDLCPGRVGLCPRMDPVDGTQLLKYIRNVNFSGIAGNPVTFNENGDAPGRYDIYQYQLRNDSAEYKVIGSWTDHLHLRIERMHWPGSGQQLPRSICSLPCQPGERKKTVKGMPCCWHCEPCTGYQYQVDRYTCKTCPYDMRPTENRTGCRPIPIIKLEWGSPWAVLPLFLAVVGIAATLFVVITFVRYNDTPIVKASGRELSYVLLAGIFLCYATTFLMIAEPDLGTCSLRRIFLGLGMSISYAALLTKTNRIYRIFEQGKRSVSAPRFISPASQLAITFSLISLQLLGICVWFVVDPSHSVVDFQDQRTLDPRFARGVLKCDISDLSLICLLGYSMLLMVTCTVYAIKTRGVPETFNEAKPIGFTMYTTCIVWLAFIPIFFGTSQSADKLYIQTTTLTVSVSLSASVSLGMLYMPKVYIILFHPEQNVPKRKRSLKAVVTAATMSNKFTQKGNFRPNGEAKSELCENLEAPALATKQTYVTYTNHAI
Source text: mGluR4 Assay on HEK-Expressing Human mGluR4
The compounds of the present invention are positive allosteric modulators of mGluR4 receptor. Their activity was examined on recombinant human mGluR4a receptors by detecting changes in intracellular Ca^2+ concentration, using the fluorescent Ca^2+-sensitive dye Fluo4-(AM) and a Fluorometric Imaging Plate Reader (FLIPR, Molecular Devices, Sunnyvale, Calif.).
The cDNA encoding the human metabotropic glutamate receptor (hmGluR4), (accession number NM_000841.1, NCBI Nucleotide database browser), was subcloned into an expression vector containing also the hygromycin resistance gene. In parallel, the cDNA encoding a G protein allowing redirection of the activation signal to intracellular calcium flux was subcloned into a different expression vector containing also the puromycin resistance gene. Transfection of both these vectors into HEK293 cells with PolyFect reagent (Qiagen) according to supplier's protocol, and hygromycin and puromycin treatment allowed selection of antibiotic resistant cells which had integrated stably one or more copies of the plasmids. Positive cellular clones expressing hmGluR4 were identified in a functional assay measuring changes in calcium fluxes in response to glutamate or selective known mGluR4 orthosteric agonists and antagonists.
HEK-293 cells expressing hmGluR4 were maintained in media containing DMEM, dialyzed Fetal Calf Serum (10%), Glutamax™ (2 mM), Penicillin (100 units/mL), Streptomycin (100 μg/mL), Geneticin (100 μg/mL) and Hygromycin-B (40 μg/mL) and puromycin (1 μg/mL) at 37° C./5% CO2.
Human mGluR4 HEK-293 cells were plated out 24 hours prior to FLIPR^384 assay in black-walled, clear-bottomed, poly-L-ornithine-coated 384-well plates at a density of 25,000 cells/well in a glutamine/glutamate free DMEM medium containing foetal bovine serum (10%), penicillin (100 units/mL) and streptomycin (100 μg/mL) at 37° C./5% CO2.
On the day of the assay, the medium was aspirated and the cells were loaded with a 3 μM solution of Fluo-4-AM (LuBioScience, Lucerne, Switzerland) in 0.03% pluronic acid. After 1 hour at 37° C./5% CO2, the non incorporated dye was removed by washing cell plate with the assay buffer and the cells were left in the dark at room temperature for […] before testing. All assays were performed in a pH 7.4 buffered-solution containing 20 mM HEPES, 143 mM NaCl, 6 mM KCl, 1 mM MgSO4, 1 mM CaCl2, 0.125 mM sulfapyrazone and 0.1% glucose.
After 10 s of basal fluorescence recording, various concentrations of the compounds of the invention were added to the cells. Changes in fluorescence levels were first monitored for 180 s in order to detect any agonist activity of the compounds. Then the cells were stimulated by an EC25 glutamate concentration for an additional 110 s in order to measure enhancing activities of the compounds of the invention. EC25 glutamate concentration is the concentration giving 25% of the maximal glutamate response.
The concentration-response curves of representative compounds of the present invention were generated using the Prism GraphPad software (Graph Pad Inc, San Diego, USA). The curves were fitted to a four-parameter logistic equation: (Y=Bottom+(Top-Bottom)/(1+10^((Log EC50−X)*Hill Slope) allowing the determination of EC50 values.
The Table 4 below represents the mean EC50 obtained from at least three independent experiments of selected molecules performed in duplicate.

SMILES | EC50 [1] [nM] | melting point [°C]
Cc1n[nH]cc1-c1nsc(Oc2ccccc2)n1 [Compound 1-1, 3-(3-Methyl-1H-pyrazol-4-yl)-5-phenoxy-1,2,4-thiadiazole] | 1000 to 10000 | 165 to 166
FC(F)(F)c1n[nH]cc1-c1nsc(Oc2ccccn2)n1 [Compound 1-2, 5-(Pyridin-2-yloxy)-3-(3-(trifluoromethyl)-1H-pyrazol-4-yl)-1,2,4-thiadiazole] | < 100 | 245 to 247
Cc1[nH]ncc1-c1csc(Oc2ncccn2)n1 [Compound 1-4, 4-(5-Methyl-1H-pyrazol-4-yl)-2-(pyrimidin-2-yloxy)thiazole] |  | 177
Fc1cccc(F)c1Oc1nc(-c2cn[nH]c2)cs1 [Compound 1-5, 2-(2,6-Difluorophenoxy)-4-(1H-pyrazol-4-yl)thiazole] | 100 to 1000 | 131 to 135
c1ccc(Oc2nc(-c3cn[nH]c3)cs2)nc1 [Compound 1-6, 4-(1H-Pyrazol-4-yl)-2-(pyridin-2-yloxy)thiazole] |  | 151 to 152
Cc1n[nH]cc1-c1csc(Oc2cccc(Cl)n2)n1 [Compound 1-7, 2-(6-Chloropyridin-2-yloxy)-4-(3-methyl-1H-pyrazol-4-yl)thiazole] | < 100 | 158 to 161
Cc1n[nH]cc1-c1csc(Oc2ncccc2F)n1 [Compound 1-8, 2-(3-Fluoropyridin-2-yloxy)-4-(3-methyl-1H-pyrazol-4-yl)thiazole] |  | 160
CC(=O)c1n[nH]cc1-c1csc(Oc2cccc(C)n2)n1 [Compound 1-9, 1-(4-(2-(6-Methylpyridin-2-yloxy)thiazol-4-yl)-1H-pyrazol-3-yl)ethanone] |  | 194 to 195
Cc1cccc(Oc2nc(-c3cn[nH]c3)cs2)n1 [Compound 1-10, 2-(6-Methylpyridin-2-yloxy)-4-(1H-pyrazol-4-yl)thiazole] | < 100 | 176 to 178
Cc1cccc(Oc2nc(-c3c[nH]nc3C)cs2)n1 [Compound 1-11, 4-(3-Methyl-1H-pyrazol-4-yl)-2-(6-methylpyridin-2-yloxy)thiazole] |  | 138 to 139
Fc1ccc(Oc2nc(-c3cn[nH]c3)cs2)nc1 [Compound 1-18, 2-(5-Fluoropyridin-2-yloxy)-4-(1H-pyrazol-4-yl)thiazole] | 100 to 1000 | 
N#Cc1sc(Oc2cccc(Cl)n2)nc1-c1cn[nH]c1 [Compound 1-21, 2-(6-Chloropyridin-2-yloxy)-4-(1H-pyrazol-4-yl)thiazole-5-carbonitrile] | < 100 | 
